In patent US20040171086A1, “Selective modulation of TLR-mediated biological activity” (3M Innovative Properties Company, priority 2003, published 2004):

How the values were obtained:
Assay type in all cases: cell-based, human
Myeloid DCs = assay: IL-12 production by myeloid DCs (IGEN analysis)
Method: (§1) The blood myeloid dendritic cells (mDC) were isolated from the BDCA-4 negative cell fraction using the Miltenyi Microbead technology system (Miltenyi BioTec, Auburn, Calif.). Cells were resuspended in 4° C. separation buffer (PBS- pH 7.2, 0.5% BSA-2.5 gm, 2 mM 0.5M EDTA) at 20 μl per 10^7 total cells. […] The cells were resuspended in 500 μL of separation buffer per 10^8 total cells. […] BDCA-1^+mDCs were enriched using the Miltenyi Automacs POSSELD software. The cells retained in the column were eluted into a sterile 50 mL polystyrene conical tube.
(§2) Compounds, reconstituted in dimethyl sulfoxide (DMSO, sterile cell culture grade, Sigma Chemical Co., St. Louis, Mo.) were added at 2× their final concentration to a 96-well flat-bottom sterile tissue culture polystyrene plate (Benton Dickinson Labware, Franklin Lakes, N.J.). Cells were then added at 2× the final concentration (final cell concentration is 1×10^6 cells/mL). Plates were incubated for 16-24 hours at 37° C., 5% CO2. After incubation, plates were centrifuged at 1000 RPM for 10 minutes at 25° C. Supernatants were transferred to a 0.75 mL sterile polypropylene Matrix box (Matrix, Hudson, N.Y.) and stored at −20° C. for future cytokine analysis.
IL-12 analysis was performed using IGEN analysis. More than two hours prior to performing the analysis, a 1:20 dilution of M-280 Streptavidin Dynabeads was prepared in IGEN buffer. Also, a 1 μg/mL solution of biotinylated IL-12 antibody (Cat. No. AHC7129, Biosource International, Camarillo, Calif.) in IGEN buffer was prepared. The 1:20 Dynabeads solution and the biotinylated antibody solution were mixed together and incubated 30 minutes at room temperature, then stored at 4° C. until the analysis was performed.
To perform the analysis, 50 μL of the Dynabeads/biotinylated antibody solution was added to each well of a 96-well plate. […] 25 μL of sample was added to each well, each sample containing either a standard dilution or an experimental sample.
The 96-well plate was tapped to mix the contents of each well, covered with plate sealer, and incubated at room temperature for 2.5 hours. Following the incubation, 100 μL of IGEN PBS Buffer was added to each well for a total assay volume of 200 μL and read on the IGEN M-8 Analyzer (IGEN International, Inc., Gaithersburg, Md.) using the hIL-12 protocol.

[1] = tested on: plasmacytoid dendritic cells (pDCs); assay: Activation of plasmacytoid dendritic cells (CD80/HLA-DR staining, flow cytometry); settings: two donors; 1 μM IRM or 3 μM CpG2216, 16-24 hours; HLA-DR positive with increased CD80; FIG. 2
Method: The cells were resuspended in 500 μL of separation buffer per 10^8 total cells. […] The cells retained in the column were eluted into a sterile 50 mL polystyrene conical tube.
as §2

[2] = tested on: myeloid dendritic cells (mDCs); assay: Activation of blood myeloid dendritic cells (CD80/HLA-DR staining, flow cytometry); settings: two donors; 1 μM IRM or 3 μM CpG2216, 16-24 hours; HLA-DR positive with increased CD80; FIG. 1
Method: as §1, §2

CCCc1nc2c(N)nc3ccccc3c2s1 [IRM9, 2-propylthiazolo[4,5-c]quinolin-4-amine] gave an IL-12 (Myeloid DCs; donor3, 3.0 μM IRM) of 693 pg/mL.
For CCc1nc2c(N)nc3ccccc3c2n1CCCCNS(C)(=O)=O [IRM36, N-[4-(4-amino-2-ethyl-1H-imidazo[4,5-c]quinolin-1-yl)butyl]methanesulfonamide], the “activation of plasmacytoid dendritic cells (pDCs) in vitro” value [1] was “activated”, the “activation of myeloid dendritic cells (mDCs) in vitro” value [2] was “not activated” and the IL-12 (Myeloid DCs; donor3, 3.0 μM IRM) was 57 pg/mL. The IL-12 (Myeloid DCs; donor4, 3.0 μM IRM) was 77 pg/mL.
For CCOCc1nc2c(N)nc3ccccc3c2n1CCCNC(=S)Nc1cccc(C#N)c1 [IRM37, N-{3-[4-amino-2-(ethoxymethyl)-1H-imidazo[4,5-c]quinolin-1-yl]propyl}-N′-(3-cyanophenyl)thiourea], the IL-12 (Myeloid DCs; donor3, 3.0 μM IRM) was 296 pg/mL and the IL-12 (Myeloid DCs; donor4, 3.0 μM IRM) was 491 pg/mL.
Cc1nc2c(N)nc3ccccc3c2n1CCCCNC(=O)N1CCCCC1 [IRM38, N-[4-(4-amino-2-methyl-1H-imidazo[4,5-c]quinolin-1-yl)butyl]piperidine-1-carboxamide] showed an IL-12 (Myeloid DCs; donor3, 3.0 μM IRM) of 17 pg/mL and an IL-12 (Myeloid DCs; donor4, 3.0 μM IRM) of 20 pg/mL.
For CCc1nc2c(N)nc3ccccc3c2n1CC(C)(C)NC(=O)Nc1ccccc1 [IRM39, N-[2-(4-amino-2-ethyl-1H-imidazo[4,5-c]quinolin-1-yl)-1,1-dimethylethyl]-N′-phenylurea], the IL-12 (Myeloid DCs; donor3, 3.0 μM IRM) was 280 pg/mL and the IL-12 (Myeloid DCs; donor4, 3.0 μM IRM) was 400 pg/mL.
Compound CCOCc1nc2c(N)nc3ccccc3c2n1CC(C)(C)O [IRM40, 4-amino-α,α-dimethyl-2-ethoxymethyl-1H-imidazo[4,5-c]quinolin-1-ethanol] has an IL-12 (Myeloid DCs; donor3, 3.0 μM IRM) of 517 pg/mL and an IL-12 (Myeloid DCs; donor4, 3.0 μM IRM) of 765 pg/mL.
For CC(C)Cn1cnc2c(N)nc3ccccc3c21 [IRM41, 1-(2-methylpropyl)-1H-imidazo[4,5-c]quinolin-4-amine], the IL-12 (Myeloid DCs; donor3, 3.0 μM IRM) was 17 pg/mL and the IL-12 (Myeloid DCs; donor4, 3.0 μM IRM) was 39 pg/mL.
